“Also recorded” adds a separate entry of the source.
Assays:
CSDS mice (Nex-Cre-Ai9) = test: Forced swim test in chronic social defeat stress (CSDS) mice; details: ketamine 10 mg/kg i.p. vs saline, two days after treatment
[1] = tested on: ventral hippocampus bulk tissue; test: Bulk qPCR mRNA levels in brain punches (tissue homogenates) from the vHipp; format: in vivo, mouse; details: ketamine 10 mg/kg, 2 days
[2] = tested on: Kcnq2 mRNA in glutamatergic neurons of the vHipp; test: qPCR mRNA levels in FACS-sorted glutamatergic neurons (Ai9+/tdTomato+) and remaining cells (Ai9-/tdTomato-) of Nex-Cre-Ai9 mice; format: in vivo, mouse; details: for mRNA levels of 8 top DEGs: ketamine vs saline
From the text: Conditional transgenic mice expressing tdTomato in glutamatergic neurons of the forebrain (Nex-Cre;Ai9) were generated by crossing homozygous Nex-Cre mice [described in S. Goebbels et al., Genesis (2006) 44: 611-621] with homozygous Ai9 mice [Gt(ROSA)26Sortm9(CAG-tdTomato)Hze] [described in L. Madisen et al., Nat Neurosci (2010) 13: 133-140].
In order to further investigate these findings, a conditional reporter mouse line (Nex-Cre-Ai9) was generated where most glutamatergic neurons of the forebrain, including the hippocampus, are fluorescently labeled by tdTomato (Ai9) except for neurons in the dentate gyrus where Neurod6, the promoter used to target glutamatergic neurons driving Cre expression, is not expressed (FIG. 12) [J. Hartmann et al., Mol Psychiatry (2017) 22: 466-475]. Following the same paradigm used in the original cohort, mice were group-housed and injected with (R,S)-ketamine (10 mg/kg BW) or a saline vehicle control. The vHipp of these mice was dissected […] later (i.e. 2 days). Single-cell suspensions were prepared and individual cells were sorted using fluorescence activated cell sorting (FACS) (FIG. 2A) into two separate pools of cells from each mouse. One pool contained glutamatergic neurons (Ai9+) and a second contained all remaining cell types of the vHipp (Ai9-) (FIG. 2A and FIGS. 13A-C). […] These two separate pools of cells were then used to validate the scRNA-seq findings in glutamatergic neurons at the population level using quantitative real-time polymerase chain reaction (qPCR).
Next, it was tested whether retigabine can produce similar synergistic effects in combination with traditional antidepressants.

CD-1 mice = test: Social Box (SB) behavioral response, ketamine response score P-KET (PLS-DA); format: in vivo, mouse
[3] = tested on: treatment-resistant patients; details: single sub-anesthetic dose; cited from earlier work
[4] = tested on: CD-1 mice injected with shRNA-Kcnq2 or shRNA-control AAV; test: Forced swim test after AAV shRNA knockdown of Kcnq2 in the vHipp; format: in vivo, mouse
mice (C57BL/6N) = test: Forced swim test (FST), pharmacological manipulation of KCNQ; format: in vivo, mouse
Description: C57BL/6N and CD-1 (ICR) male mice aged 10 weeks old were used in these experiments. Ketamine hydrochloride (Ketaset, Zoetis, Germany) was diluted in 0.9% NaCl solution (saline) and administered i.p at 1, 5 or 10 mg/kg BW, depending on the experiment design. The KNCQ inhibitor, XE991 (Alomone labs; Cat #: X-100) was diluted in 5% DMSO and administered i.p at 1 or 3 mg/kg BW. The KCNQ activator, Retigabine (Alomone labs; Cat #: R-100), was diluted in 5% DMSO and administered i.p at 1 or 5 mg/kg BW. As control, mice were injected with a DMSO-saline solution (5% DMSO). For all experiments, mice were tested 30 minutes after injection in the FST or over a period of 36 hours after injection in the social boxes.
Previous studies in rodents have shown that KCNQ function can be regulated with highly-specific agonists and antagonists [V. Barrese et al., Annu Rev Pharmacol Toxicol (2018) 58: 625-648]. To further explore the KCNQ channel as a potential therapeutic target of ketamine, it was examined whether pharmacological inhibition of KCNQ alone or in combination with ketamine had any effects on behavior. To accomplish this, a new cohort of mice received two injections with a combination of drugs. […] To assess the effects of ketamine, XE991 (KCNQ inhibitor), and its combination, these mice were exposed to a FST (FIG. 7A, left). […] The inventors then sought to test whether the effects of ketamine could be mimicked, increased or amplified using retigabine, also known as ezogabine, a selective KCNQ (Kcnq2/3) channel activator. Similarly to the previous experiment, mice were treated with saline, (R,S)-ketamine (10 mg/kg BW), or ketamine in combination with two different concentrations of retigabine (1 and 5 mg/kg BW) (FIG. 7A, right).
Next, it was examined whether retigabine could increase the sustained antidepressant-like effects produced by a single injection of ketamine in mice. Accordingly, a new cohort of mice were treated with a single dose of saline, ketamine, or ketamine in combination with retigabine (1 mg/kg) and antidepressant-like behaviors were assessed using the FST, 5—and 7-days post-injection (FIG. 8A). […] Next, as a potential therapeutic strategy for major depressive disorder (MDD), the synergistic effects of ketamine and retigabine was further investigated by testing whether or not retigabine can increase the antidepressant-like effects produced by ketamine in mice. […] Next, it was tested whether retigabine can produce similar synergistic effects in combination with traditional antidepressants. […] Lastly, using a new cohort of Nex-Cre-Ai9 mice, it was tested whether the adjunctive treatment of ketamine with retigabine, or escitalopram alone, could modify the expression of Kcnq2 mRNA in FACS sorted cells from the vHipp (FIG. 8F).

Kcnq2 mRNA = Kcnq2 mRNA (qPCR) in the vHipp of CSDS mice, FACS-sorted cells and bulk; details: ketamine vs saline
mice = test: Home cage activity (locomotion); format: in vivo, mouse; details: 60-min period following treatment and 2 days post injection
Description: The home cage activity was measured with the Mouse-E-Motion infrared-detecting devices (Infra-e-motion, Germany). Mice were single housed in fresh cages, and a metal food tray was employed to hold the devices in place. The base bedding was kept, but extra nesting materials that could conceal the animal were removed. The readout lasted 2 days (post-injection) during which time the animals were not disturbed. Locomotor activity was detected in 5-minute increments and averaged by the hour. The final analysis was applied to the first 60-minute period and the 48 hours (2 days), post injection.

## CNC1(c2ccccc2Cl)CCCCC1=O (racemic) [ketamine, (R,S)-ketamine]
CSDS mice (Nex-Cre-Ai9)
  immobility time during the FST: significant decrease in immobility time
[1]
  bulk mRNA expression of the 8 genes, ketamine vs saline: did not reach statistical significance
[2]; Ai9+ cells, ketamine 10 mg/kg BW vs saline, 36 hours, p<0.001
  Kcnq2 mRNA fold change (FC) after ketamine treatment: 2.2
[2]; Ai9+ cells
  mRNA levels of 8 top DEGs: significantly dysregulated
[2]; Ai9- cells
  mRNA levels of 8 top DEGs: No significant differences
[2]; any of the experiments: scRNA-seq, FACS-sorted cells, primary neurons (Table 2B, FIGS. 17A-C)
  mRNA expression of Kcnq3 after ketamine treatment: no significant differences
[2]; glutamatergic neurons (tdTomato+) of the vHipp, two days after treatment, ketamine 10, escitalopram 10, retigabine 1 mg/kg/BW
  Kcnq2 mRNA: significant increase of Kcnq2 mRNA
[2]; ketamine 10 mg/kg BW, 36 hours
  total number of Ai9+ sorted cells, ketamine vs saline: No significant differences
CD-1 mice; ketamine 10 mg/kg
  response to ketamine (P-KET) in the SB vs saline: significant difference
CD-1 mice; ketamine 10 mg/kg/BW i.p.
  SB behavioral readouts (PLSDA classifier): spent more time exploring in an open area of the SB arena; also recorded: more social and anxiolytic behaviors
[3]
  duration of antidepressant response: up to 7 days
  onset of antidepressant response: within hours
[4]; mice expressing the shRNA-Kcnq2 virus, ketamine 10 mg/kg BW
  antidepressant-like effects of ketamine in the FST: no longer detected
[4]; shRNA-scramble control mice, ketamine 10 mg/kg BW vs saline
  immobility time during the FST: significant decrease in immobility time
Mice (C57BL/6N); (R,S)-ketamine 10 mg/kg/BW, dose series (FIG. 8E, FIG. 26A)
  immobility time during the FST: significant reduction of immobility time
Mice (C57BL/6N); (R,S)-ketamine 1 and 5 mg/kg/BW
  antidepressant-like effects in the FST: failed to produce antidepressant-like effects
Mice (C57BL/6N); ketamine 10 mg/kg BW alone vs saline (FIGS. 23A-B)
  immobility time during the FST: significant decrease in immobility time; also recorded: significant effect
Mice (C57BL/6N); single dose of ketamine alone
  FST effect at day 7 post-injection: disappeared by day 7
  duration of the FST effect post-injection: up to five days
Mice (C57BL/6N); single dose of ketamine alone, several days post-injection (day 5)
  immobility time during the FST, sustained effect: significant decrease in immobility time
Kcnq2 mRNA; bulk mRNA
  Kcnq2 mRNA expression: no significant increase of Kcnq2 mRNA
Kcnq2 mRNA; glutamatergic neurons (tdTomato+)
  Kcnq2 mRNA expression: significantly increased to baseline levels
Kcnq2 mRNA; tdTomato negative cells
  Kcnq2 mRNA expression: no significant differences
mice
  locomotor activity (home cage), ketamine vs saline: no differences in total activity between groups; also recorded: no significant difference in the locomotion activity

Source: US20240065988A1, “COMBINED USE OF KETAMINE AND RETIGABINE (EZOGABINE) FOR THE TREATMENT OF PSYCHIATRIC DISORDERS” (Yeda Research and Development Co. Ltd., priority 2021, published 2024)
